Reference: ChEMBL document CHEMBL4177609, “Identification of pyrrolo[2,3-d]pyrimidines as potent HCK and FLT3-ITD dual inhibitors” (Bioorg Med Chem Lett, 2017)
pIC50: −log10 of the molar value.

Legend:
[1] = biological target: Tyrosine-protein kinase HCK (Homo sapiens, UniProt P08631)
Description: Inhibition of recombinant human HCK SH3-SH2-KD (75 to 526 residues) after 20 mins by mobility shift assay

[2] = biological target: Receptor-type tyrosine-protein kinase FLT3 (Homo sapiens, UniProt P36888, ITD); assay: Inhibition of recombinant human C-terminal FLT3 ITD mutant (571 to 993 residues) after 90 mins by mobility shift assay
[3] = system: MV4-11; assay: Growth inhibition of human MV4-11 cells after 3 days by Alamar blue assay; format: functional; settings: MV4-11, 72 h

Chain of Tyrosine-protein kinase HCK (P08631 whole entry, the tested form may be a part): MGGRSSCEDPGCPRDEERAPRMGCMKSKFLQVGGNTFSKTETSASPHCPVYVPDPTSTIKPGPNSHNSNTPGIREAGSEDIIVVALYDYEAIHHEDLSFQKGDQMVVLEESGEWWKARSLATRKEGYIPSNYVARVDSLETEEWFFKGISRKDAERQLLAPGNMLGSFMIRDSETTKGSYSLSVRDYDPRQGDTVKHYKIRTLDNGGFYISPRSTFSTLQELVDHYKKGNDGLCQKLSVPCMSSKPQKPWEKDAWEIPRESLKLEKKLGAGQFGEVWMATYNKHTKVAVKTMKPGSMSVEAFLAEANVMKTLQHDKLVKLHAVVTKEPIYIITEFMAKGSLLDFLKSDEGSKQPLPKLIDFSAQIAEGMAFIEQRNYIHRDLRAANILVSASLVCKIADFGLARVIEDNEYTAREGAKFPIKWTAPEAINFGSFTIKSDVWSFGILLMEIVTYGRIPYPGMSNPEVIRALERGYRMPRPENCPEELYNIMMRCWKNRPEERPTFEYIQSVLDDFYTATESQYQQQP
Chain of Receptor-type tyrosine-protein kinase FLT3 (P36888 whole entry, looked up, stated change not applied, the tested form may be a part): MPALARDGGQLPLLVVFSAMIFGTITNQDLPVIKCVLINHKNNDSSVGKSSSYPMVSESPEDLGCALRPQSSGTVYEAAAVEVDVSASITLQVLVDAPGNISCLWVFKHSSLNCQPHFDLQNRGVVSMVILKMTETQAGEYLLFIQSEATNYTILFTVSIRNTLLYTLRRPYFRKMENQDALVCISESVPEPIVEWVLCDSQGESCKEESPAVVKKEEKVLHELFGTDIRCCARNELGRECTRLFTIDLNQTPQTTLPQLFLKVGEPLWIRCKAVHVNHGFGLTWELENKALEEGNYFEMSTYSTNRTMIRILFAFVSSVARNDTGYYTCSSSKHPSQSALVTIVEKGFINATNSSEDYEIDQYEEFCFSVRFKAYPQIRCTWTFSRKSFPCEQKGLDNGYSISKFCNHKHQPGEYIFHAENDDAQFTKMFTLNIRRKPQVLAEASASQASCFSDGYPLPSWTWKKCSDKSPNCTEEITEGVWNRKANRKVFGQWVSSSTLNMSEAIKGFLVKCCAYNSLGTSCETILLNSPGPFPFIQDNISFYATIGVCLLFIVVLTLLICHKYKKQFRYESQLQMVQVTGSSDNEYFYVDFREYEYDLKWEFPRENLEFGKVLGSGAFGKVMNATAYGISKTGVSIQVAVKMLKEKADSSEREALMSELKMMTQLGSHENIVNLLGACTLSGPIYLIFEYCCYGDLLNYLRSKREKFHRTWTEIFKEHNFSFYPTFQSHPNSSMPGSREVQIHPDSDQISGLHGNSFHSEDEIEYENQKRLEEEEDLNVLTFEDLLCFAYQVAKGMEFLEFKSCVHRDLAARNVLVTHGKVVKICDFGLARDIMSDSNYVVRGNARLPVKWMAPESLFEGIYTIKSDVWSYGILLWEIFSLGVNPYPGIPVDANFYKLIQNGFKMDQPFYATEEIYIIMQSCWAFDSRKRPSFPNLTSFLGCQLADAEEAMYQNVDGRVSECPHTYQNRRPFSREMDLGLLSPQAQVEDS

Row | SMILES | pIC50 [1] | pIC50 [2] | GI50 [3]
1 | Nc1ncnc2c1c(-c1ccc(Oc3ccccc3)cc1)cn2[C@H]1CC[C@H](NCC(=O)O)CC1 | 8.43 | 7.55 | 98 nM
2 | CC(C)C[C@H](N[C@H]1CC[C@H](n2cc(-c3ccc(Oc4ccccc4)cc3)c3c(N)ncnc32)CC1)C(=O)O | 8.36 | 7.85 | 21 nM
3 | Nc1ncnc2c1c(-c1ccc(Oc3ccccc3)cc1)cn2[C@H]1CC[C@@H](NCC(=O)O)CC1 | 7.92 | 7.49 | 
4 | Nc1ncnc2c1c(-c1ccc(Oc3ccccc3)cc1)cn2[C@H]1CC[C@H](N[C@H]2CCOC2=O)CC1 | 7.55 | 7.60 | 
5 | Nc1ncnc2c1c(-c1ccc(Oc3ccccc3)cc1)cn2[C@H]1CC[C@@H](N[C@H](CO)C(=O)O)CC1 | 7.64 | 7.92 | 
6 | Nc1ncnc2c1c(-c1ccc(Oc3ccccc3)cc1)cn2[C@H]1CC[C@H](NCCC(=O)O)CC1 | 7.82 | 7.48 | 
7 | Nc1ncnc2c1c(-c1ccc(Oc3ccccc3)cc1)cn2[C@H]1CC[C@@H](N[C@@H](CO)C(=O)O)CC1 | 7.40 | 7.89 | 
8 | Nc1ncnc2c1c(-c1ccc(Oc3ccccc3)cc1)cn2[C@H]1CC[C@@H](N[C@@H](Cc2ccccc2)C(=O)O)CC1 | 7.13 | 8.51 | 
9 | Nc1ncnc2c1c(-c1ccc(Oc3ccccc3)cc1)cn2[C@H]1CC[C@H](N[C@H](Cc2ccccc2)C(=O)O)CC1 | 7.62 | 7.57 | 
10 | C[C@@H](N[C@H]1CC[C@@H](n2cc(-c3ccc(Oc4ccccc4)cc3)c3c(N)ncnc32)CC1)C(=O)O | 7.44 | 7.64 | 
11 | C[C@H](N[C@H]1CC[C@H](n2cc(-c3ccc(Oc4ccccc4)cc3)c3c(N)ncnc32)CC1)C(=O)O | 8.16 | 7.41 | 
12 | Nc1ncnc2c1c(-c1ccc(Oc3ccccc3)cc1)cn2[C@H]1CC[C@H](N2CCC[C@H]2C(=O)O)CC1 | 7.28 | 7.59 | 
13 | CC(C)CCN[C@H]1CC[C@H](n2cc(-c3ccc(Oc4ccccc4)cc3)c3c(N)ncnc32)CC1 | 6.65 | 7.25 | 
14 | Nc1ncnc2c1c(-c1ccc(Oc3ccccc3)cc1)cn2[C@H]1CC[C@@H](N[C@H]2CCOC2=O)CC1 | 8.27 | 7.57 | 29 nM
15 | Nc1ncnc2c1c(-c1ccc(Oc3ccccc3)cc1)cn2[C@H]1CC[C@H](N[C@@H](CO)C(=O)O)CC1 | 8.74 | 7.74 | > 100 nM
16 | CC(C)C[C@H](N[C@H]1CC[C@@H](n2cc(-c3ccc(Oc4ccccc4)cc3)c3c(N)ncnc32)CC1)C(=O)O | 6.98 | 7.64 | 

Row | SMILES | pIC50 [1] | pIC50 [2] | GI50 [3]
17 | CC(C)C[C@@H](N[C@H]1CC[C@H](n2cc(-c3ccc(Oc4ccccc4)cc3)c3c(N)ncnc32)CC1)C(=O)O | 7.57 | 7.28 | 
18 | C[C@H](N[C@H]1CC[C@@H](n2cc(-c3ccc(Oc4ccccc4)cc3)c3c(N)ncnc32)CC1)C(=O)O | 7.14 | 7.70 | 
19 | Nc1ncnc2c1c(-c1ccc(Oc3ccccc3)cc1)cn2[C@H]1CC[C@H](N[C@@H](Cc2ccc(O)cc2)C(=O)O)CC1 | 8.13 | 7.55 | 
20 | Nc1ncnc2c1c(-c1ccc(Oc3ccccc3)cc1)cn2[C@H]1CC[C@@H](N[C@H](Cc2ccccc2)C(=O)O)CC1 | 7.74 | 8.59 | 26 nM
21 | Nc1ncnc2c1c(-c1ccc(Oc3ccccc3)cc1)cn2[C@H]1CC[C@H](N2CCC[C@@H]2C(=O)O)CC1 | 6.70 | 6.90 | 
22 | Nc1ncnc2c1c(-c1ccc(Oc3ccccc3)cc1)cn2[C@H]1CC[C@@H](N2CCC[C@H]2C(=O)O)CC1 | 7.10 | 7.70 | 
23 | CC(C)C[C@@H](N[C@H]1CC[C@@H](n2cc(-c3ccc(Oc4ccccc4)cc3)c3c(N)ncnc32)CC1)C(=O)O | 6.86 | 7.46 | 
24 | C[C@@H](N[C@H]1CC[C@H](n2cc(-c3ccc(Oc4ccccc4)cc3)c3c(N)ncnc32)CC1)C(=O)O | 7.44 | 7.41 | 
25 | Nc1ncnc2c1c(-c1ccc(Oc3ccccc3)cc1)cn2[C@H]1CC[C@H](N[C@H](Cc2ccc(O)cc2)C(=O)O)CC1 | 7.82 | 7.96 | 
26 | CC(C)CCN[C@H]1CC[C@@H](n2cc(-c3ccc(Oc4ccccc4)cc3)c3c(N)ncnc32)CC1 | 6.92 | 7.36 | 
27 | Nc1ncnc2c1c(-c1ccc(Oc3ccccc3)cc1)cn2[C@H]1CC[C@@H](N[C@@H](Cc2ccc(O)cc2)C(=O)O)CC1 | 7.41 | 8.30 | 
28 | Nc1ncnc2c1c(-c1ccc(Oc3ccccc3)cc1)cn2[C@H]1CC[C@H](N[C@H](CO)C(=O)O)CC1 | 8.20 | 7.77 | 
29 | Nc1ncnc2c1c(-c1ccc(Oc3ccccc3)cc1)cn2[C@H]1CC[C@H](N[C@@H](Cc2ccccc2)C(=O)O)CC1 | 8.12 | 7.62 | 
30 | Nc1ncnc2c1c(-c1ccc(Oc3ccccc3)cc1)cn2[C@H]1CC[C@@H](N2CCC[C@@H]2C(=O)O)CC1 | 7.19 | 7.80 | 
31 | Nc1ncnc2c1c(-c1ccc(Oc3ccccc3)cc1)cn2[C@H]1CC[C@@H](N[C@H](Cc2ccc(O)cc2)C(=O)O)CC1 | 7.89 | 8.30 | 18 nM
32 | CN1CCN([C@H]2CC[C@H](n3cc(-c4ccc(Oc5ccccc5)cc4)c4c(N)ncnc43)CC2)CC1 | 9.40 |  | 40 nM
